Test results: PubChem BioAssay AID1963965 (Molecular Pharmacology Branch, DTP, NCI, 2024)

Tested on: 996289-038-R-J1-PDC spheroid viability
Test: Anticancer human tumor 996289-038-R-J1-PDC patient-derived colon adenocarcinoma cell line growth inhibition [PI3K]
Settings: spheroids with HUVEC and MSC; for IC50: curve of first compound; for viability, T/C: stronger effect = lower value; active = viability on the fitted dose curve at most 10% of control; inactive = the rest
How it was run: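 Targeted small molecules plus PI3K inhibitors, half-log dose series from Cmax (default top 10 microM), were applied to heterotypic spheroids of cancer cells with HUVEC and MSCs. Viability indicated growth inhibition.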

[1] = second compound 0.00316 µM, first compound 0.0316 µM
[2] = second compound 0.00316 µM, first compound 0.1 µM
[3] = second compound 0.00316 µM, first compound 0.316 µM
[4] = second compound 0.00316 µM, first compound 1 µM
[5] = second compound 0.00316 µM, first compound 3.16 µM
[6] = second compound 0.00316 µM, first compound 10 µM
[7] = second compound 0.01 µM, first compound 0.0316 µM
[8] = second compound 0.01 µM, first compound 0.1 µM
[9] = second compound 0.01 µM, first compound 0.316 µM
[10] = second compound 0.01 µM, first compound 1 µM
[11] = second compound 0.01 µM, first compound 3.16 µM
[12] = second compound 0.01 µM, first compound 10 µM
[13] = second compound 0.0316 µM, first compound 0.0316 µM
[14] = second compound 0.0316 µM, first compound 0.1 µM
[15] = second compound 0.0316 µM, first compound 0.316 µM
[16] = second compound 0.0316 µM, first compound 1 µM
[17] = second compound 0.0316 µM, first compound 3.16 µM
[18] = second compound 0.0316 µM, first compound 10 µM
[19] = second compound 0.1 µM, first compound 0.0316 µM
[20] = second compound 0.1 µM, first compound 0.1 µM
[21] = second compound 0.1 µM, first compound 0.316 µM
[22] = second compound 0.1 µM, first compound 1 µM
[23] = second compound 0.1 µM, first compound 3.16 µM
[24] = second compound 0.1 µM, first compound 10 µM
[25] = second compound 0.316 µM, first compound 0.0316 µM
[26] = second compound 0.316 µM, first compound 0.1 µM
[27] = second compound 0.316 µM, first compound 0.316 µM
[28] = second compound 0.316 µM, first compound 1 µM
[29] = second compound 0.316 µM, first compound 3.16 µM
[30] = second compound 0.316 µM, first compound 10 µM
[31] = second compound 1 µM, first compound 0.0316 µM
[32] = second compound 1 µM, first compound 0.1 µM
[33] = second compound 1 µM, first compound 0.316 µM
[34] = second compound 1 µM, first compound 1 µM
[35] = second compound 1 µM, first compound 3.16 µM
[36] = second compound 1 µM, first compound 10 µM
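Note: spheroids exposed to compounds for seven days before viability read.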
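Throughout, for viability, T/C: luminescence used as a proxy for viable cell amount; percent viability relative to DMSO vehicle control as 100%.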

C=CC(=O)N1CCN(c2nc(=O)n(-c3c(C)ccnc3C(C)C)c3nc(-c4c(O)cccc4F)c(F)cc23)C(C)C1 (centres undefined) + CC(Nc1ccc2c(c1)OCCn1cc(N3C(=O)OCC3C(F)F)nc1-2)C(N)=O
inactive: viability, T/C [1] 91.2% | viability, T/C [2] 92.7% | viability, T/C [3] 106% | viability, T/C [4] 112% | viability, T/C [5] 113% | viability, T/C [6] 106% | viability, T/C [7] 97.8% | viability, T/C [8] 96.7% | viability, T/C [9] 112% | viability, T/C [10] 100% | viability, T/C [11] 118% | viability, T/C [12] 118% | viability, T/C [13] 88.7% | viability, T/C [14] 106% | viability, T/C [15] 95.3% | viability, T/C [16] 105% | viability, T/C [17] 97.3% | viability, T/C [18] 98.8% | viability, T/C [19] 87.5% | viability, T/C [20] 81.9% | viability, T/C [21] 87.8% | viability, T/C [22] 98.9% | viability, T/C [23] 85.4% | viability, T/C [24] 83% | viability, T/C [25] 79.4% | viability, T/C [26] 67.7% | viability, T/C [27] 75.1% | viability, T/C [28] 80.9% | viability, T/C [29] 77.1% | viability, T/C [30] 77.7% | viability, T/C [31] 82.2% | viability, T/C [32] 50.2% | viability, T/C [33] 60.2% | viability, T/C [34] 59.1% | viability, T/C [35] 62.6% | viability, T/C [36] 67.7%
> 10 µM: IC50 (second compound 0.00316 µM) | IC50 (second compound 0.01 µM) | IC50 (second compound 0.0316 µM) | IC50 (second compound 0.1 µM) | IC50 (second compound 0.316 µM) | IC50 (second compound 1 µM)

CC(Cn1ccc(-c2ccc(C#N)c(Cl)c2)n1)NC(=O)c1cc(C(C)O)[nH]n1 (centres undefined) + CC(Nc1ccc2c(c1)OCCn1cc(N3C(=O)OCC3C(F)F)nc1-2)C(N)=O
inactive: viability, T/C [1] 86% | viability, T/C [2] 108% | viability, T/C [3] 98.5% | viability, T/C [4] 112% | viability, T/C [5] 96% | viability, T/C [6] 97.4% | viability, T/C [7] 92.6% | viability, T/C [8] 98.4% | viability, T/C [9] 110% | viability, T/C [10] 100% | viability, T/C [11] 96% | viability, T/C [12] 87.1% | viability, T/C [13] 96.8% | viability, T/C [14] 101% | viability, T/C [15] 89.7% | viability, T/C [16] 93.7% | viability, T/C [17] 93.8% | viability, T/C [18] 79.2% | viability, T/C [19] 78% | viability, T/C [20] 79.4% | viability, T/C [21] 89.1% | viability, T/C [22] 82.7% | viability, T/C [23] 97.1% | viability, T/C [24] 76.7% | viability, T/C [25] 70.2% | viability, T/C [26] 73.2% | viability, T/C [27] 66.7% | viability, T/C [28] 73.5% | viability, T/C [29] 66.7% | viability, T/C [30] 72% | viability, T/C [31] 55% | viability, T/C [32] 55.1% | viability, T/C [33] 68.9% | viability, T/C [34] 63.1% | viability, T/C [35] 58% | viability, T/C [36] 58.6%
> 10 µM: IC50 (second compound 0.00316 µM) | IC50 (second compound 0.01 µM) | IC50 (second compound 0.0316 µM) | IC50 (second compound 0.1 µM) | IC50 (second compound 0.316 µM) | IC50 (second compound 1 µM)
